# Earlier results, collected in US20070141100A1, “Drug-eluting biodegradable stent” (priority 2003, published 2007).
# Entries after “also recorded” stand apart in the source; their conditions may differ.
# What was measured:
# 3T3 fibroblasts = conditions: in vitro
# [1] = tested on: Chinese hamster ovary (CHO-K1) cells; conditions: in vitro
# mice = conditions: i.v.
# neointimal proliferation = conditions: animal studies, compared with a control bare metal stent
# [2] = tested on: renal transplant recipients; conditions: everolimus trough serum concentrations above 7.8 ng/ml
# [3] = glutaraldehyde used to crosslink materials
smiles,measurement,setting,value
"CC(=O)O[C@H]1C(=O)[C@@]2(C)[C@H]([C@H](OC(=O)c3ccccc3)[C@]3(O)C[C@H](OC(=O)[C@H](O)[C@@H](NC(=O)c4ccccc4)c4ccccc4)C(C)=C1C3(C)C)[C@]1(OC(C)=O)CO[C@@H]1C[C@@H]2O [Taxol, paclitaxel]",solubility in water,,practically water insoluble
COC(=O)C1=CO[C@@H](O)[C@@H]2C(CO)=CC[C@H]12 [genipin],cytotoxicity compared with glutaraldehyde,3T3 fibroblasts,substantially less cytotoxic than glutaraldehyde; also recorded: significantly less cytotoxic than glutaraldehyde
same,clastogenic response (genotoxicity),[1],does not cause clastogenic response
same,LD50,mice,382 mg/k
CO[C@H]1C[C@@H]2CC[C@@H](C)[C@@](O)(O2)C(=O)C(=O)N2CCCC[C@H]2C(=O)O[C@H]([C@H](C)C[C@@H]2CC[C@@H](O)[C@H](OC)C2)CC(=O)[C@H](C)/C=C(\C)[C@@H](O)[C@@H](OC)C(=O)[C@H](C)C[C@H](C)/C=C/C=C/C=C/1C [Sirolimus],solubility in water,,non-water soluble
CO[C@H]1C[C@@H]2CC[C@@H](C)[C@@](O)(O2)C(=O)C(=O)N2CCCC[C@H]2C(=O)O[C@H]([C@H](C)C[C@@H]2CC[C@@H](OCCO)[C@H](OC)C2)CC(=O)[C@H](C)/C=C(\C)[C@@H](O)[C@@H](OC)C(=O)[C@H](C)C[C@H](C)/C=C/C=C/C=C/1C [Everolimus],reduction of neointimal proliferation,neointimal proliferation,50%
same,rate of thrombocytopenia,[2],17%
same,solubility in water,,poorly soluble in water
O=CCCCC=O [glutaraldehyde],cytotoxic at concentrations greater than,tissue culture,10-25 ppm
same,cytotoxic at concentrations as low as,tissue culture; in tissue culture,3 ppm
same,crosslinking concentration giving a persistent foreign-body reaction,[3],above 0.05%
